{"source": "patent US20250051805A1", "about": "“METHODS” (Commonwealth Scientific and Industrial Research Organisation, priority 2021, published 2025)", "key": {"[1]": {"tested_on": "S. cerevisiae BY4741 transformed with pRS-ePST1-AmVHPO", "assay": "Bromoform synthesis by S. cerevisiae with peroxisome-targeted VHPO in SDUGGO media", "format": "cell-based, Saccharomyces cerevisiae", "conditions": "0.1% oleic acid together with 3-amino-1,2,4-triazol", "protocol": "10 mL seed cultures of were inoculated with a single colony of BY4741 transformed with pRS-ePST1-AmVHPO in SD and grown at 220 rpm, 30° C. overnight. These were used to inoculate 10 mL cultures of SDUGGO media (uracil (0.67% yeast nitrogenous base without amino acids, 0.192% Merck yeast synthetic dropout medium supplement without uracil, 10% glycerol, 0.1% glucose, 100 mM KBr, 1 mM Na3VO4, 100 mM MOPS (pH 6.5), 0.1% oleic acid emulsified in 1% tergitol) at an initial OD600 of 2.0, and incubated for a further 24 hours at 220 rpm, 30° C. As with E. coli, samples were grown in 50 mL tubes with the lids closed to minimize the loss of bromoform by evaporation. Cells were harvested by centrifugation and resuspended in 1 mL of brine (6 M NaCl), transferred into 20 mL headspace GC vials and sealed with a magnetic screw cap before analysis by SPME-GC-MS.\nWith this plasmid in hand, the media was adapted to allow for maximum flux through beta-oxidation, incorporating both oleic acid to induce β-oxidation and glycerol as a non-repressing carbon source. A small amount of glucose (0.1%) was also included to stimulate initial cell growth, alongside Mops buffer (pH 6.5), which improved bromoform production compared with unbuffered cultures. KBr and Na3VO4 were also added to allow for VHPO activity."}, "[2]": {"tested_on": "E. coli transformed to express VHPO", "assay": "Bromoform biosynthesis in growing E. coli cultures expressing VHPO with inhibitors or oleic acid", "format": "cell-based, Escherichia coli", "conditions": "for production of bromoform in culture: 0.1% oleic acid, 1% tergitol, with amino-triazole to inhibit catalase; for bromoform observed in culture: 0.5 g/L tannic acid together with 10 mM 3-amino-1,2,4-triazole, 18 hours", "protocol": "(§1) VHPO was expressed in E. coli isolate BL21 (DE3) as described above. Alongside IPTG (0.2 mM) the culture was also supplemented with 50 mM KBr, 1 mM Na3VO4, 10 mM 3-amino,1,2,4-triazole, and 0.5 g/L tannic acid or 0.1% oleic acid (emulsified with 1% tergitol (Merck, Ma USA)). Typically, 10 mL LB cultures were grown in 50 mL tubes with the lids closed. Vented tubes led to the loss of bromoform by evaporation. Cells were harvested by centrifugation and resuspended in 1 mL of brine (6 M NaCl), transferred into 20 mL headspace GC vials and sealed with a magnetic screw cap before analysis by SPME-GC-MS.\nThis strategy utilizes tannic acid to inhibit FabG to promote the accumulation acetoacyl-acyl-carrier-proteins (Wu et al., 2010), alongside 3-amino-1,2,4-triazol to inhibit catalase and promote the accumulation of H2O2(Meir and Yagil, 1985). FabG is β-ketoacyl-ACP reductase [EC 1.1.1.100], an enzyme that catalyses the reduction of acetoacyl-acyl carrier proteins during fatty acid synthesis. Catalase consumes the intracellular H2O2 which is required for VHPO activity. Both inhibitors were added to cultures E. coli transformed to express VHPO upon induction with IPTG. The VHPO gene from the marine cyanobacterium Acaryochloris marina MBIC110174 was synthesized by Epoch Life Science Inc. (Tx, USA) using the published gene sequence (GenBank Accession CP000828-nucleotides 5020736-5018817). This gene sequence was codon optimized for E. coli expression and cloned into expression vector pACYCDuet1 under the regulatory control of a LacI repressor and T7 promoter and terminator sequences. Cell growth was allowed to continue for 18 hours in the presence of these molecules with the addition of KBr and Na3VO4, before harvesting the cells by centrifugation and analysis of bromoform levels.\nas §1, with “Alongside” for “VHPO was expressed in E. coli isolate BL21 (DE3) as described above. Alongside”"}, "[3]": {"tested_on": "E. coli expressing the A. marina VHPO gene", "assay": "Bromoform production by E. coli expressing A. marina VHPO with 1,3-dicarbonyl substrates of Table 4", "format": "cell-based, Escherichia coli", "conditions": "1 mM substrate, 100 mM H2O2, 24 hours room temperature; FIG. 8", "protocol": "A sample with no additional substrate was also run as a control experiment. Samples (1 mL) were incubated in sealed tubes at room temperature for 24 hours. 10 μL samples from each were withdrawn and added to 1 mL brine to improve phase separation16 and placed in a 20 mL GC vial, which were then sealed with magnetic screw caps (Agilent). The head space of each sample was analyzed by solid phase microextraction (SPME) GC-MS.\nTo test for bromoform production E. coli cells were resuspended in 1 mL water/100 mL culture volume and 20% v/v of this cell suspension was added to a solution of substrate listed in Table 4 in addition to 100 mM HEPES (pH 7.4), 20 mM KBr, 1 mM Na3VO4, and 100 mM H2O2. Samples (1 mL) were incubated in sealed tubes at room temperature for 24 hours. 10 μL samples from each were withdrawn and added to 1 mL brine in a GC vial before sealing. The head space of each sample was analysed by solid phase microextraction (SPME) GC/MS as above. Bromoform was quantified by comparison with a standard curve prepared from authentic samples of bromoform as described above."}, "[4]": {"conditions": "cited from earlier work"}, "[5]": {"target": "T1, VHPO extracted from Corallina officinalis (Corallina officinalis, UniProt Q8LLW7)", "T1 construct": "VHPO extracted from Corallina officinalis (Sigma); purchased Sigma; host or cells: extracted from the red alga Corallina officinalis (natural source)", "T1 sequence (Q8LLW7 1-598)": "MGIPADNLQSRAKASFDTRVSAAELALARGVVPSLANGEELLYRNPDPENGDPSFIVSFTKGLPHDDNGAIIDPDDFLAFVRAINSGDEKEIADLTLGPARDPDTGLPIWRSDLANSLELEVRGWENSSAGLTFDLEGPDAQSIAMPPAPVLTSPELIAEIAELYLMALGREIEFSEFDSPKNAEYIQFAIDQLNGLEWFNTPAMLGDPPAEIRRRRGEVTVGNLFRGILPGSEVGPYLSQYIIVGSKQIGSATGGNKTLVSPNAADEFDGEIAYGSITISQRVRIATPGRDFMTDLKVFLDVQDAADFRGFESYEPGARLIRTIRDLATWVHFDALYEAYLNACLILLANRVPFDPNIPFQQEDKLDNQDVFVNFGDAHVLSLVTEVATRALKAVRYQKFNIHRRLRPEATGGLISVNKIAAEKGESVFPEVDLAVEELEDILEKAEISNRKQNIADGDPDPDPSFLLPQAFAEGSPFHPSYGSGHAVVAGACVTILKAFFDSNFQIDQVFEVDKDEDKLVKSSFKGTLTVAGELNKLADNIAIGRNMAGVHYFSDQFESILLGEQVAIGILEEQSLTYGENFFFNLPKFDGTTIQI", "assay": "Bromoform synthesis by extracted enzyme", "format": "biochemical", "conditions": "0.1 U VHPO, 10 mM substrate, 50 mM KBr, 50 mM H2O2", "protocol": "The whole reaction (100 μL) was transferred to a GC-Headspace vial and left at room temperature until analysis by SPME-GCMS as before. Relative bromoform levels were assessed as described above."}, "[6]": {"tested_on": "E. coli expressing the A. marina VHPO gene", "assay": "Bromoform production by E. coli cells expressing A. marina VHPO with Table 3 substrates (SPME-GC/MS)", "format": "cell-based, Escherichia coli", "conditions": "1 mM substrate, 50 mM H2O2, 24 hours room temperature; compared with the other samples of Table 3", "protocol": "Transformed E. coli were then grown in LB with 30 μg/mL chloramphenicol at 37° C. 220 rpm, until OD600 ˜0.6. IPTG 0.2 mM was then added and the cultures transferred to 28° C. with shaking at 220 rpm for a further 18 hours. Cells were harvested by centrifugation and kept at −20° C. before further use.\nTo test for bromoform production E. coli cells were resuspended in 1 mL water/100 mL culture volume and 20% v/v of this cell suspension was added to a solution of substrate listed below in Table 3, 100 mM HEPES (pH 7.4), 20 mM KBr, 1 mM Na3VO4, and 50 mM H2O2. Samples (100 μL) were incubated in sealed GC vials at room temperature for 24 hours. The head space of each sample was analysed by solid phase microextraction (SPME) GC/MS using a 7890A series gas chromatograph, a 5975C inert XL MSD mass selective detector and a MPS2 Gerstel multipurpose autosampler. Bromoform was identified in samples by comparison of the retention time with an authentic standard (Sigma, USA) and by mass spectral matching using the NIST/EPA/NIH Mass Spectral Library (version 2014). Relative bromoform quantities were measured by integration of the m/z=250 signal in extracted ion chromatograms generated using Agilent Mass Hunter software (version 10.0)."}, "[7]": {"tested_on": "E. coli expressing the A. marina VHPO gene", "assay": "Time course of bromoform production from acetylacetone by the E. coli cell suspension with repeated H2O2 addition", "format": "cell-based, Escherichia coli", "protocol": "It was hypothesized that with sufficient hydrogen peroxide supply full conversion to bromoform could be achieved. To this end an additional reaction was set up with 10% E. coli cell suspension 100 mM HEPES (pH 7.4), 100 mM KBr, 1 mM Na3VO4, and 400 mM H2O2 added to initiate the reaction, then again after 2 and 4 hours. 10 μL of this reaction was sampled at 0, 20, 60, 120, 180, 240, and 360 minutes, the reaction was stopped by addition of 1 mL of ice cold brine and samples were stored in sealed GC vials at −20° C. before analysis by SPME-GC/MS as above. Bromoform was quantified by comparison with a standard curve prepared from authentic samples of bromoform, added to control samples (identical to the reaction, except containing no bromide), to account for matrix effects. The time course and standard curve is shown below in FIG. 7."}}}
{"compound": "Nc1nc[nH]n1", "note": "[3-amino-1,2,4-triazol]", "values": [{"measurement": "bromoform detected in the cell pellet", "setting": "[1]", "value": "only when both oleic acid and 3-amino-1,2,4-triazol were added"}, {"measurement": "production of bromoform in culture", "setting": "[2]", "value": "trace amounts"}, {"measurement": "bromoform observed in culture", "setting": "[2]", "value": "only observed when both inhibitors were added"}]}
{"compound": "CCCCCCCC/C=C\\CCCCCCCC(=O)O", "note": "[oleic acid]", "values": [{"measurement": "bromoform detected in the cell pellet", "setting": "[1]", "value": "only when both oleic acid and 3-amino-1,2,4-triazol were added"}, {"measurement": "production of bromoform in culture", "setting": "[2]", "value": "trace amounts"}]}
{"compound": "CCC(=O)CC(=O)CC", "note": "[3,5-heptanedione]", "values": [{"measurement": "bromoform production", "setting": "[3]", "value": "increase in bromoform production"}]}
{"compound": "O=C(OC[C@H]1O[C@@H](OC(=O)c2cc(O)c(O)c(OC(=O)c3cc(O)c(O)c(O)c3)c2)[C@H](OC(=O)c2cc(O)c(O)c(OC(=O)c3cc(O)c(O)c(O)c3)c2)[C@@H](OC(=O)c2cc(O)c(O)c(OC(=O)c3cc(O)c(O)c(O)c3)c2)[C@@H]1OC(=O)c1cc(O)c(O)c(OC(=O)c2cc(O)c(O)c(O)c2)c1)c1cc(O)c(O)c(OC(=O)c2cc(O)c(O)c(O)c2)c1", "note": "[tannic acid]", "values": [{"measurement": "bromoform observed in culture", "setting": "[2]", "value": "only observed when both inhibitors were added"}]}
{"compound": "CCOC(=O)CC(C)=O", "note": "[ethyl acetoacetate]", "values": [{"measurement": "pKa (H2O solvent reference)", "setting": "[4]", "value": "10.7 (Brodwell, personal"}, {"measurement": "bromoform production", "setting": "[3]", "value": "increase in bromoform production"}]}
{"compound": "CC1(C)CC(=O)CC(=O)C1", "note": "[5,5-dimethyl-1,3-cyclohexanedione]", "values": [{"measurement": "pKa (H2O solvent reference)", "setting": "[4]", "value": "5.2 (Brodwell, personal"}, {"measurement": "bromoform production", "setting": "[3]", "value": "increase in bromoform production"}, {"measurement": "increase in bromoform concentration relative to acetone", "setting": "[5]; listed as dimedone", "value": 51, "unit": "fold"}, {"measurement": "increase in bromoform concentration relative to acetone", "setting": "[5]; listed as dimidone", "value": "up to 50 fold"}]}
{"compound": "CC(=O)CC(C)=O", "note": "[acetylacetone]", "values": [{"measurement": "bromoform production", "setting": "[3]", "value": "increase in bromoform production"}, {"measurement": "increase in bromoform production", "setting": "[6]", "value": 10, "unit": "fold"}, {"measurement": "amount of bromoform synthesised", "setting": "[7]; 400 mM H2O2 added at start and again after 2 and 4 hours", "value": 5, "unit": "mg/mL"}, {"measurement": "conversion to bromoform (yield based on acetylacetone)", "setting": "[7]; after three hours, 400 mM H2O2 added at start and again after 2 and 4 hours", "value": 97, "unit": "%"}, {"measurement": "part of acetylacetone converted rapidly to bromoform", "setting": "[7]; initial phase of the reaction", "value": "Approximately half"}]}
